According to patent publication US20250092056A1, “URACIL DERIVATIVES HAVING VIRUS REPLICATION INHIBITORY ACTIVITY AND PHARMACEUTICAL COMPOSITION COMPRISING THE SAME” (Shionogi & Co., Ltd., priority 2022, published 2025):

Columns and labels:
SARS-CoV-2 = assay: Cytopathic effect (CPE) suppression effect confirmation test using HEK293T/ACE2-TMPRSS2 cells; type: cell-based; conditions: Severe acute respiratory syndrome coronavirus 2, HEK-293T; 50% SARS-CoV-2 infected cell death inhibitory concentration; HEK293T/ACE2-TMPRSS2 cells; read-out: EC50
[1] = biological target: Recombinant SARS-CoV-2 3CL Protease (Severe acute respiratory syndrome coronavirus 2 (2019-nCoV) (SARS-CoV-2), UniProt P0DTD1); assay: biochemical; type: biochemical; conditions: 50% SARS-CoV-2 3CL protease inhibitory concentration; read-out: IC50

| SMILES | EC50 (SARS-CoV-2) [nM] | IC50 [1] [nM] |
| --- | --- | --- |
| N#CCn1c(-c2nnc(C3CC3)s2)c(-c2ccc(F)c(Cl)c2)c(=O)n(-c2cncc(Cl)c2)c1=O [Compound I-359] | < 100 | < 10 |
| Cc1coc(-c2c(-c3ccc(F)c(Cl)c3)c(=O)n(-c3cncc(Cl)c3)c(=O)n2CC#N)n1 [Compound I-360] | < 100 | < 10 |
| N#CCn1c(N2CC3(C2)CC(F)(F)C3)c(-c2ccc(F)c(Cl)c2)c(=O)n(-c2cncc(Br)c2)c1=O [Compound I-361] | < 100 | < 10 |
| N#CCn1c(N2CC3(C=C(F)C3)C2)c(-c2ccc(F)c(Cl)c2)c(=O)n(-c2cncc(Cl)c2)c1=O [Compound I-362] | < 100 | < 10 |
| N#CCn1c(N2CC3(C2)CC(F)(F)C3)c(-c2ccc(F)c(Cl)c2)c(=O)n(-c2cncc(I)c2)c1=O [Compound I-363] | < 100 | < 10 |
| N#CCn1c(N2CC3(CCOC3)C2)c(CC2CC(F)(F)C2)c(=O)n(-c2cncc(Cl)c2)c1=O [Compound I-364] | 100 to 1000 | > 100 |
| N#CCn1c(N2CC3(CCOC3)C2)c(CCCC(F)(F)F)c(=O)n(-c2cncc(Cl)c2)c1=O [Compound I-365] | 100 to 1000 | 10 to 100 |
| N#CCn1c(N2CC3(C2)CC(F)(F)C3)c(-c2cc(F)c(F)c(C#N)c2)c(=O)n(-c2cncc(Cl)c2)c1=O [Compound I-366] | < 100 | < 10 |
| N#CCn1c(N2CC(O)(C(F)(F)F)C2)c(-c2cc(F)c(F)c(C#N)c2)c(=O)n(-c2cncc(Cl)c2)c1=O [Compound I-367] | < 100 | < 10 |
| N#CCn1c(N2CC(C(F)(F)F)C2)c(-c2cc(F)c(F)c(C#N)c2)c(=O)n(-c2cncc(Cl)c2)c1=O [Compound I-368] | < 100 | < 10 |
| N#CCn1c(N2CC(OC(F)F)C2)c(-c2cc(F)c(F)c(C#N)c2)c(=O)n(-c2cncc(Cl)c2)c1=O [Compound I-369] | < 100 | < 10 |
| N#CCn1c(N2C[C@@H]3C[C@H]2CO3)c(-c2cc(F)c(F)c(C#N)c2)c(=O)n(-c2cncc(Cl)c2)c1=O [Compound I-370] | < 100 | < 10 |
| N#CCn1c(C2CC(O)C2)c(-c2ccc(F)c(Cl)c2)c(=O)n(-c2cncc(Cl)c2)c1=O (stereo not shown) [Compound I-371] | < 100 | < 10 |
| N#CCn1c(N2CC3(C2)CC(F)(F)C3)c(-c2ccc(F)c(C#N)c2)c(=O)n(-c2cncc(Cl)c2)c1=O [Compound I-372] | < 100 | < 10 |
| N#CCn1c(N2CC(O)(C(F)(F)F)C2)c(-c2ccc(F)c(C#N)c2)c(=O)n(-c2cncc(Cl)c2)c1=O [Compound I-373] | < 100 | < 10 |
| N#CCn1c(N2CC(C(F)(F)F)C2)c(-c2ccc(F)c(C#N)c2)c(=O)n(-c2cncc(Cl)c2)c1=O [Compound I-374] | < 100 | < 10 |
| N#CCn1c(N2CC(OC(F)F)C2)c(-c2ccc(F)c(C#N)c2)c(=O)n(-c2cncc(Cl)c2)c1=O [Compound I-375] | < 100 | < 10 |
| N#CCn1c(N2C[C@@H]3C[C@H]2CO3)c(-c2ccc(F)c(C#N)c2)c(=O)n(-c2cncc(Cl)c2)c1=O [Compound I-376] | < 100 | < 10 |
| N#CCn1c(N2CC(O)(c3ncccn3)C2)c(-c2ccc(F)c(Cl)c2)c(=O)n(-c2cncc(OCF)n2)c1=O [Compound I-377] | < 100 | < 10 |

| SMILES | EC50 (SARS-CoV-2) [nM] | IC50 [1] [nM] |
| --- | --- | --- |
| N#CCn1c(N2CC(O)(c3ncccn3)C2)c(-c2ccc(F)c(Cl)c2)c(=O)n(-c2cncc(OC(F)F)n2)c1=O [Compound I-378] | < 100 | < 10 |
| COc1ccc(-c2c(-c3ccc(F)c(Cl)c3)c(=O)n(-c3cncc(Cl)c3)c(=O)n2CC#N)cn1 [Compound I-379] | < 100 | < 10 |
| N#CCn1c(-c2ccc(CO)nc2)c(-c2ccc(F)c(Cl)c2)c(=O)n(-c2cncc(Cl)c2)c1=O [Compound I-380] | < 100 | < 10 |
| N#CCn1c(N2CC(O)(C3CC3)C2)c(-c2ccc(F)c(Cl)c2)c(=O)n(-c2cncc(C(F)F)n2)c1=O [Compound I-381] | < 100 | < 10 |
| CC1(O)CN(c2c(-c3ccc(F)c(Cl)c3)c(=O)n(-c3cncc(C(F)F)n3)c(=O)n2CC#N)C1 [Compound I-382] | < 100 | < 10 |
| N#CCn1c(N2CC(O)(C(F)(F)F)C2)c(-c2ccc(F)c(Cl)c2)c(=O)n(-c2cncc(C(F)F)n2)c1=O [Compound I-383] | < 100 | < 10 |
| N#CCn1c(-c2ccc(C#N)nc2)c(-c2ccc(F)c(Cl)c2)c(=O)n(-c2cncc(Cl)c2)c1=O [Compound I-384] | < 100 | < 10 |
| N#CCn1c(-c2ccc(F)nc2)c(-c2ccc(F)c(Cl)c2)c(=O)n(-c2cncc(Cl)c2)c1=O [Compound I-385] | < 100 | < 10 |
| N#CCn1c(-c2ccc(C(F)F)nc2)c(-c2ccc(F)c(Cl)c2)c(=O)n(-c2cncc(Cl)c2)c1=O [Compound I-387] | < 100 | < 10 |
| N#CCn1c(C2CC2)c(-c2ccc(F)c(Cl)c2)c(=O)n(-c2cncc(Cl)c2)c1=O [Compound I-388] | < 100 | < 10 |
| COCC1CN(c2c(-c3ccc(F)c(Cl)c3)c(=O)n(-c3cncc(C(F)F)n3)c(=O)n2CC#N)C1 [Compound I-389] | < 100 | < 10 |
| N#CCn1c(C2CC(F)(C3CC3)C2)c(-c2ccc(F)c(Cl)c2)c(=O)n(-c2cncc(C(F)F)n2)c1=O (stereo not shown) [Compound I-390] | < 100 | < 10 |
| N#CCn1c(CCC2CC(F)(F)C2)c(-c2ccc(F)c(Cl)c2)c(=O)n(-c2cncc(Cl)c2)c1=O [Compound I-391] | < 100 | < 10 |
| N#CCn1c(C2CC(F)(F)C2)c(-c2ccc(F)c(Cl)c2)c(=O)n(-c2cncc(Cl)c2)c1=O [Compound I-394] | < 100 | < 10 |
| N#CCn1c(C2CCC2)c(-c2ccc(F)c(Cl)c2)c(=O)n(-c2cncc(Cl)c2)c1=O [Compound I-395] | < 100 | < 10 |
| COC1CN(c2c(-c3ccc(F)c(Cl)c3)c(=O)n(-c3cncc(C(F)F)n3)c(=O)n2CC#N)C1 [Compound I-396] | < 100 | < 10 |
| N#CCn1c(N2CCC(C(F)F)CC2)c(-c2ccc(F)c(F)c2)c(=O)n(-c2cncc(Cl)c2)c1=O [Compound I-397] | < 100 | < 10 |
| N#CCn1c(N2CCC(C(F)F)CC2)c(-c2ccc(F)c(C#N)c2)c(=O)n(-c2cncc(Cl)c2)c1=O [Compound I-398] | < 100 | < 10 |
| N#CCn1c(N2CC[C@@](O)(C(F)F)C2)c(-c2ccc(F)c(Cl)c2)c(=O)n(-c2cncc(C#N)c2)c1=O [Compound I-399] | < 100 | < 10 |

| SMILES | EC50 (SARS-CoV-2) [nM] | IC50 [1] [nM] |
| --- | --- | --- |
| N#CCn1c(N2CC[C@](O)(C(F)F)C2)c(-c2ccc(F)c(Cl)c2)c(=O)n(-c2cncc(C#N)c2)c1=O [Compound I-400] | < 100 | < 10 |
| N#CCn1c(N2CCC(F)(F)CC2)c(-c2ccc(F)c(F)c2)c(=O)n(-c2cncc(Cl)c2)c1=O [Compound I-401] | < 100 | < 10 |
| N#CCn1c(N2CCC(C(F)(F)F)CC2)c(-c2ccc(F)c(C#N)c2)c(=O)n(-c2cncc(Cl)c2)c1=O [Compound I-402] | < 100 | < 10 |
| N#CCn1c(N2CCC(F)(F)CC2)c(-c2ccc(F)c(Cl)c2)c(=O)n(-c2cncc(C#N)c2)c1=O [Compound I-403] | < 100 | < 10 |
| N#CCn1c(N2CCC(C(F)F)CC2)c(-c2ccc(F)c(Cl)c2)c(=O)n(-c2cncc(C#N)c2)c1=O [Compound I-404] | < 100 | < 10 |
| CCCNC(=O)c1c(-c2ccc(F)c(Cl)c2)c(=O)n(-c2cncc(Cl)c2)c(=O)n1CC#N [Compound I-405] | 100 to 1000 | > 100 |
| CC(C)NC(=O)c1c(-c2ccc(F)c(Cl)c2)c(=O)n(-c2cncc(Cl)c2)c(=O)n1CC#N [Compound I-406] | 1000 to 5000 | > 100 |
| N#CCn1c(CC2(O)CCC2)c(-c2ccc(F)c(Cl)c2)c(=O)n(-c2cncc(Cl)c2)c1=O [Compound I-407] | < 100 | 10 to 100 |
| N#CCn1c(N2CC(OC(F)(F)F)C2)c(-c2ccc(F)c(Cl)c2)c(=O)n(-c2cncc(OCF)n2)c1=O [Compound I-408] | < 100 | < 10 |
| N#CCn1c(N2CC(CO)C2)c(-c2ccc(F)c(Cl)c2)c(=O)n(-c2cncc(OCF)n2)c1=O [Compound I-409] | < 100 | < 10 |
| N#CCn1c(N2CC(F)(C3CC3)C2)c(-c2ccc(F)c(Cl)c2)c(=O)n(-c2cncc(OCF)n2)c1=O [Compound I-410] | < 100 | < 10 |
| N#CCn1c(N2CC(O)(C(F)F)C2)c(-c2ccc(F)c(Cl)c2)c(=O)n(-c2cncc(OCF)n2)c1=O [Compound I-411] | < 100 | < 10 |
| N#CCn1c(N2CCC(C(F)F)CC2)c(-c2ccc(F)c(F)c2)c(=O)n(-c2cncc(C#N)c2)c1=O [Compound I-412] | < 100 | < 10 |
| N#CCn1c(N2CCC(C(F)F)CC2)c(-c2ccc(F)c(C(F)F)c2)c(=O)n(-c2cncc(C#N)c2)c1=O [Compound I-413] | < 100 | < 10 |
| CC(C)(O)CCc1c(-c2ccc(F)c(Cl)c2)c(=O)n(-c2cncc(C#N)c2)c(=O)n1CC#N [Compound I-414] | < 100 | < 10 |
| N#CCn1c(N2CC(OC(F)F)C2)c(-c2ccc(F)c(C(F)F)c2)c(=O)n(-c2cncc(C#N)c2)c1=O [Compound I-415] | < 100 | < 10 |
| N#CCn1c(N2CC(O)C2)c(-c2ccc(F)c(C(F)F)c2)c(=O)n(-c2cncc(C#N)c2)c1=O [Compound I-416] | < 100 | < 10 |
| N#CCn1c(N2CCC(F)(F)CC2)c(-c2ccc(F)c(C(F)F)c2)c(=O)n(-c2cncc(C#N)c2)c1=O [Compound I-417] | < 100 | < 10 |
